From ChEMBL document CHEMBL1201862, “PubChem BioAssay data set” (2004)
Activity calls are given as the source filed them.

Legend:
[1] = NIH-3T3 fibroblast cytotoxicity, dose response, cytotoxicity control, cell-based, fluorescence, Alamar Blue, secondary assay (AID 2327); format: functional;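 also: NIH-3T3 mouse fibroblasts cultured with fluconazole at 8 µg/mL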
[2] = test system: Streptococcus sp. 'group A'; test: Streptococcus pyogenes SK(-)GAS viability under kanamycin – luminescence, BacTiterGlo, confirmation, counter-screen for streptokinase expression inhibitor project, dose response (AID 1900); format: functional, organism-based
Streptokinase A = target: T1, Streptokinase A (Streptococcus pyogenes serotype M1, UniProt P10520); test: viability-normalized secreted streptokinase activity reduction – plasminogen activation absorbance, OD405, dose response (AID 1914); format: functional, Streptococcus pyogenes M1 GAS;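 also: secreted streptokinase activity via plasminogen activation per viability signal from cell pellet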
T1 sequence (P10520 whole entry): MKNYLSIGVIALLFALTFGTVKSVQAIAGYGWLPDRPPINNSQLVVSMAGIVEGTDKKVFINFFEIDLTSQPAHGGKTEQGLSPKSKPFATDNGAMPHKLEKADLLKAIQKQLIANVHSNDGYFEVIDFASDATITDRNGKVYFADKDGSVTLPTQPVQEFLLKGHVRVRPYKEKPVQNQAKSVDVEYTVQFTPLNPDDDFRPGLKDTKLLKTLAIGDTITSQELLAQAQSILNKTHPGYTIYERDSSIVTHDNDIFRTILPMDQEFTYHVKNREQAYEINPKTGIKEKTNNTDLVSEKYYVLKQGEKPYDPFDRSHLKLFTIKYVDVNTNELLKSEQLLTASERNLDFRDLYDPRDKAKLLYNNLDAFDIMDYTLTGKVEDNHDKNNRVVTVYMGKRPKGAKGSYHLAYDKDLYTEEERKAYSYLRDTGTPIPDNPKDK

[3] = fluconazole-exposed Candida albicans growth modulators – fluorescence, retest, confirmation (AID 2467); format: functional, cell-based
Streptococcus = test: GAS UMAA2166 growth inhibition – luminescence, BacTiterGlo, counter-screen for streptokinase expression inhibitor project, dose response (AID 1915); format: functional, organism-based;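 also: potency for reduction of bacterial viability or growth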
Cysteine protease ATG4B = Cysteine protease ATG4B (Homo sapiens, UniProt Q9Y4P1); format: functional;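 also: Fluorescence-based dose-response confirmation assay measuring inhibition of ATG4B activity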
Cysteine protease ATG4B, sequence (Q9Y4P1 whole entry): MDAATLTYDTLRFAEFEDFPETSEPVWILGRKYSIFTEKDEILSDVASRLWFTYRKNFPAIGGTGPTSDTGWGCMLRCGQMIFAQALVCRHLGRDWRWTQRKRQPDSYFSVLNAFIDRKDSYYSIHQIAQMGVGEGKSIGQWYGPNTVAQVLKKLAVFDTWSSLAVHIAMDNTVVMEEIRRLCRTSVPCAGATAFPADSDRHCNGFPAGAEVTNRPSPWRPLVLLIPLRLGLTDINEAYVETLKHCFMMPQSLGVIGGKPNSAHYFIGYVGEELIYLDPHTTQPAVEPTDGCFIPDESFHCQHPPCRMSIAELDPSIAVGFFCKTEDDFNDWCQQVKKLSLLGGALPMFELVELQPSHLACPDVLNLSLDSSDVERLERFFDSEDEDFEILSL

Phospholipase A2 = Phospholipase A2 (Homo sapiens, UniProt P04054); format: functional;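 also: confirmatory dose-response counterscreen on phospholipase A2, testing hits that came from an ultra-high-throughput screen for ATG4B inhibitors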
BJ [4] = test: BJ-TERT fibroblast viability loss – cell-based, RAS-independent, luminescence, dose response (AID 1933); format: functional; conditions: Homo sapiens
Beta-galactosidase = Beta-galactosidase (Escherichia coli, UniProt Q8VNN2); test: PubChem AID 485352; format: functional
Beta-galactosidase, sequence (Q8VNN2 whole entry): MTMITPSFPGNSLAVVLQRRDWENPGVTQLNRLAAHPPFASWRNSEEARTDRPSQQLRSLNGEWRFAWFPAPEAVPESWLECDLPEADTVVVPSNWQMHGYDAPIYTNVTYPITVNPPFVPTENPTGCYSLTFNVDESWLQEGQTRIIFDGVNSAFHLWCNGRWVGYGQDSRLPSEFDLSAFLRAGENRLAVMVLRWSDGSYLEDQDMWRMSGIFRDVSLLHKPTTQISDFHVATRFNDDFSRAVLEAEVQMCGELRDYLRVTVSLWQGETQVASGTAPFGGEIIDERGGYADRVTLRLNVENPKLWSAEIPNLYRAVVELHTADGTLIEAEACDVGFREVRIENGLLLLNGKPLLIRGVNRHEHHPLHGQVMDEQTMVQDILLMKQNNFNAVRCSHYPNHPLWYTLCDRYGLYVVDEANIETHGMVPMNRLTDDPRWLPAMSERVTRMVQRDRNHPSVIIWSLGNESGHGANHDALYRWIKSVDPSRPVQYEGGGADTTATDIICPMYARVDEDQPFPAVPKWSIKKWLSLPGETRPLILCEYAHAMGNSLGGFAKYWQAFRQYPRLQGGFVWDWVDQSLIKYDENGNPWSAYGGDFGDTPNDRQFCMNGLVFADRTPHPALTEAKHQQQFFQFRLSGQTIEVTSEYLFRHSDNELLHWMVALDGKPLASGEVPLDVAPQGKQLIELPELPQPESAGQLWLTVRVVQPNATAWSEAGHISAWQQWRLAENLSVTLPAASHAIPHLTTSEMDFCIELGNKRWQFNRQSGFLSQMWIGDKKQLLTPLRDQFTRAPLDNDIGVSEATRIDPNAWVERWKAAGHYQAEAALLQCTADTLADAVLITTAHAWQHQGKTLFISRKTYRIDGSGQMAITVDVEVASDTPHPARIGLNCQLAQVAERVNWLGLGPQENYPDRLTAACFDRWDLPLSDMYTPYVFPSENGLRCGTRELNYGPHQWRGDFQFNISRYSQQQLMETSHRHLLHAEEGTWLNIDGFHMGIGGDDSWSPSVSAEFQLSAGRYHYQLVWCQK

BJ [5] = test: cells; format: functional, cell-based; conditions: Homo sapiens
[6] = target: T2, Type-1 angiotensin II receptor (Homo sapiens, UniProt P30556); test: antagonism of angiotensin II type 1 receptor – cell-based, uHTS hits, selectivity assay for APJ receptor antagonist project, dose response (AID 463214); format: functional;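 also: antagonist potency against angiotensin II stimulated AT1 response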
T2 sequence (P30556 whole entry): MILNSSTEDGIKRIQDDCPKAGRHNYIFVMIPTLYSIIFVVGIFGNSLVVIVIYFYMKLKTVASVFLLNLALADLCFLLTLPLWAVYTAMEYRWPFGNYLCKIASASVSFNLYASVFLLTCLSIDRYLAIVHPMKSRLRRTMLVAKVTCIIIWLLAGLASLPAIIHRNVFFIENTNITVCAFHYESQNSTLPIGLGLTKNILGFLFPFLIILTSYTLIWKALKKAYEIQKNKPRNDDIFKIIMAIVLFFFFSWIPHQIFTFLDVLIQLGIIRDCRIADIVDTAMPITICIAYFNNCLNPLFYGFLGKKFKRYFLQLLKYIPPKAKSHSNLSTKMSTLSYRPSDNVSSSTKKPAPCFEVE

BJ [7] = test: BJ-TERT-LT-ST fibroblast viability loss – cell-based, RAS-independent, luminescence, dose response (AID 1935); format: functional; conditions: Homo sapiens;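 also: BJ fibroblasts immortalized with TERT plus LT and ST oncogenes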
[8] = DRD fibroblast viability loss – cell-based, non-viral oncogenic, luminescence, dose response (AID 1934); format: functional; conditions: Homo sapiens
[9] = target: G-protein coupled receptor 55 (Homo sapiens, UniProt Q9Y2T6); test: selective activators of receptor GPR55 – imaging, U2OS cells, beta-arrestin-GFP redistribution, primary screen (AID 1961); format: functional
[10] = target: Intestinal-type alkaline phosphatase (Mus musculus, UniProt P24822); test: PubChem AID 488874; format: functional
Intestinal-type alkaline phosphatase (Mus musculus, UniProt P24822), sequence (P24822 whole entry): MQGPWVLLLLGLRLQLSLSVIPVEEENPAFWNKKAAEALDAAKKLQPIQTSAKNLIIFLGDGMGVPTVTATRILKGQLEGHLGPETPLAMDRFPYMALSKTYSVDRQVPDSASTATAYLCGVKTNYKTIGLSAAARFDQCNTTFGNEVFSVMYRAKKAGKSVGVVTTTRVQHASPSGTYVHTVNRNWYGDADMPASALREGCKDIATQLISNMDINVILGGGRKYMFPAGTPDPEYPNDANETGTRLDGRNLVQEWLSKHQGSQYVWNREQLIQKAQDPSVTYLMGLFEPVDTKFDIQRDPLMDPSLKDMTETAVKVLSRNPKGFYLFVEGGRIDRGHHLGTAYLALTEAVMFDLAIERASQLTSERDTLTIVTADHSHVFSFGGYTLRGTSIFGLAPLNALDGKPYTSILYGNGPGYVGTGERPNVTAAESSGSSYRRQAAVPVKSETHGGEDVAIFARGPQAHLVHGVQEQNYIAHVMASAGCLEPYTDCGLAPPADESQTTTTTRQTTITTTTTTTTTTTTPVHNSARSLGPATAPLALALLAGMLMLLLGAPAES

[11] = target: T3, Intestinal-type alkaline phosphatase (Homo sapiens, UniProt P09923); test: inhibition of human intestinal alkaline phosphatase – biochemical, luminescent, uHTS hits, set 2, dose response (AID 488793); format: functional
T3 sequence (P09923 whole entry): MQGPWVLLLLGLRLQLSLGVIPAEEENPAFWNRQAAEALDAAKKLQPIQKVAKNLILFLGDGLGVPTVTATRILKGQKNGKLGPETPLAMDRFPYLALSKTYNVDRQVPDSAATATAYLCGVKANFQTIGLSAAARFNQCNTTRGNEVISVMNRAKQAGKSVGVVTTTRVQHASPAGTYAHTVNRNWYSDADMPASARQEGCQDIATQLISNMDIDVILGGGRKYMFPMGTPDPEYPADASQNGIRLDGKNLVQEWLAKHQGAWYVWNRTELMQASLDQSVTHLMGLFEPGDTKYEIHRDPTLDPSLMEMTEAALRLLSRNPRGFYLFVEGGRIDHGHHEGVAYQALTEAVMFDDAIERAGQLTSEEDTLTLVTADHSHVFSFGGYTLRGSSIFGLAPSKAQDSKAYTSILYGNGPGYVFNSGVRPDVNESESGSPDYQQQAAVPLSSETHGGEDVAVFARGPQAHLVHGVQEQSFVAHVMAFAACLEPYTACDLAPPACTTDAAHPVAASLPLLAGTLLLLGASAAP

[12] = target: T3, Intestinal-type alkaline phosphatase; test: Dose Response confirmation of uHTS hits from a small molecule inhibitors of human intestinal alkaline phosphatase via a luminescent assay. [Related pubchem assays (depositor defined):AID2544, AID2574]; format: functional
[13] = target: T4, Alkaline phosphatase, tissue-nonspecific isozyme (Homo sapiens, UniProt P05186); test: inhibition of tissue-nonspecific alkaline phosphatase – biochemical, dose response (AID 488882); format: functional
T4 sequence (P05186 whole entry): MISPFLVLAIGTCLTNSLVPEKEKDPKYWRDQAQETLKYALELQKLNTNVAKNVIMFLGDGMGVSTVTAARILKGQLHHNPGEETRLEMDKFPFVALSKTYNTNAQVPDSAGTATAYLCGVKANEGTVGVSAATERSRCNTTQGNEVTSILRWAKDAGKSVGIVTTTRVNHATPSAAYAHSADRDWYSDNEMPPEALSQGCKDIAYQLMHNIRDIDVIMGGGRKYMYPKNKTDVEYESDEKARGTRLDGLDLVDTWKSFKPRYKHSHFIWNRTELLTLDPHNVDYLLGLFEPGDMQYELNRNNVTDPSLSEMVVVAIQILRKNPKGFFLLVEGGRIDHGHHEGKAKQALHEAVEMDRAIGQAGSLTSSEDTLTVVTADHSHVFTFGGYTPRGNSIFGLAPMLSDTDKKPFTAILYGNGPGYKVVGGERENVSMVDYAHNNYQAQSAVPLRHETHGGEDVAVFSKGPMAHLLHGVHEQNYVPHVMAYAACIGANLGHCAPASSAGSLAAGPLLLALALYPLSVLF

[14] = target: T5, Tyrosine-protein phosphatase non-receptor type 7 (Homo sapiens, UniProt P35236); format: functional
T5 sequence (P35236 whole entry): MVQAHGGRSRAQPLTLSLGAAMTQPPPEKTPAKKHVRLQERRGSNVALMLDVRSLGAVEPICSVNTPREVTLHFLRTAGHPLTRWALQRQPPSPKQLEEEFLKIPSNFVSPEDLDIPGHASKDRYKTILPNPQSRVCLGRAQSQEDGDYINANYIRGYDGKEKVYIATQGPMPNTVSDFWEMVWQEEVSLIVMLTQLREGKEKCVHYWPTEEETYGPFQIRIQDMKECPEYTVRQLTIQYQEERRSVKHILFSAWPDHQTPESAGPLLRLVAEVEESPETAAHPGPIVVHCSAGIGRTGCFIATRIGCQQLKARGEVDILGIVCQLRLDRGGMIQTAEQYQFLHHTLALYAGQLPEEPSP

[15] = target: Glyceraldehyde-3-phosphate dehydrogenase (Homo sapiens, UniProt P04406)
[16] = target: T6, Dual specificity protein phosphatase 6 (Rattus norvegicus, UniProt Q64346)
T6 sequence (Q64346 whole entry): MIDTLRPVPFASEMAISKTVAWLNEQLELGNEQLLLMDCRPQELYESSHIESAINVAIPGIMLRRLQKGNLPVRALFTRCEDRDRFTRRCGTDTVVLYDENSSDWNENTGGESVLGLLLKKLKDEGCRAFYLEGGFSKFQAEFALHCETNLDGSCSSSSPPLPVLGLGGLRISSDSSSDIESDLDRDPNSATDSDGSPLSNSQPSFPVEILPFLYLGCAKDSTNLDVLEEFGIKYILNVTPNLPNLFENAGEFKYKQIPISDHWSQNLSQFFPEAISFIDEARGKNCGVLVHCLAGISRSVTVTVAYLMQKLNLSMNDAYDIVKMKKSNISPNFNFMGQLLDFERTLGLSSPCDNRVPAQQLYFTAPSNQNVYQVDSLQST

[17] = target: T6, Dual specificity protein phosphatase 6; format: functional
Cytochrome P450 2C19 = Cytochrome P450 2C19 (Homo sapiens, UniProt P33261); test: Cytochrome panel assay with activity outcomes. Panel member name: p450-cyp2c19 Compounds with AC50 equal or less than 10 uM are considered active; format: functional; conditions: read-out: AC50
Cytochrome P450 2C19, sequence (P33261 whole entry): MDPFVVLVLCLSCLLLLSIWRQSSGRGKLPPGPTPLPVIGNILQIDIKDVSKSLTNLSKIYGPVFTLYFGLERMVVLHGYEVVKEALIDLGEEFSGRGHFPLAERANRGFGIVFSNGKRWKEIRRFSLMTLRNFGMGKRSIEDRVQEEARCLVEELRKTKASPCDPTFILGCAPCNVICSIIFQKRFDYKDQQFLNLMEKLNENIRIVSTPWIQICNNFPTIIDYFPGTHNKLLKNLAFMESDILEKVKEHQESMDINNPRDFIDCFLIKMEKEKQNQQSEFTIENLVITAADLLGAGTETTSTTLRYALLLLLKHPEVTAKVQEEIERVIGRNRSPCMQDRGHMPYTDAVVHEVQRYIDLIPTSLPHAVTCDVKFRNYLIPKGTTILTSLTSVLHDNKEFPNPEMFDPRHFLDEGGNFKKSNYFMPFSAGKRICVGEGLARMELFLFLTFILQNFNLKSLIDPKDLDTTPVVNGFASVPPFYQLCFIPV

Cytochrome P450 3A4 = Cytochrome P450 3A4 (Homo sapiens, UniProt P08684);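 also: CYP3A4 tested as one member of a cytochrome P450 panel screen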
CHO = CHO cell viability loss, potency – luminescence, cytotoxicity control for TLR9-MyD88 binding inhibitor project, dose response (AID 588339); format: functional, cell-based, hamster; conditions: Cricetulus griseus;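 also: CHO cells stably coexpressing TLR9 and MyD88 fusions from primary screen; compound exposure lasted 48 hours before viability readout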
[18] = target: UDP-galactopyranose mutase (Mycobacterium tuberculosis, UniProt P9WIQ1); test: Inhibitors of Mycobacterium tuberculosis UDP-galactopyranose mutase (UGM) enzyme Measured in Biochemical System Using Plate Reader - 2105-02_Inhibitor_Dose_CherryPick_Activity. [Related pubchem assays (depositor defined):AID504439]
Beta Lactamase = Beta Lactamase (Pseudomonas aeruginosa, UniProt Q932Y6); test: BLA reporter interference, concentration series – BLA reporter cells, FRET fluorescence, artefact control for TLR9-MyD88 binding inhibitor project, dose response (AID 588341); format: cell-based;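 also: cell based assay in CHO-K1 cells stably expressing beta-lactamase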
Keap1/Nrf2 = Keap1/Nrf2 (Homo sapiens, UniProt Q14145); test: disruptors of Keap1 binding to Nrf2 peptide – biochemical, fluorescence polarization, cherry-picked samples, dose response (AID 588683)
Keap1/Nrf2, sequence (Q16236 whole entry): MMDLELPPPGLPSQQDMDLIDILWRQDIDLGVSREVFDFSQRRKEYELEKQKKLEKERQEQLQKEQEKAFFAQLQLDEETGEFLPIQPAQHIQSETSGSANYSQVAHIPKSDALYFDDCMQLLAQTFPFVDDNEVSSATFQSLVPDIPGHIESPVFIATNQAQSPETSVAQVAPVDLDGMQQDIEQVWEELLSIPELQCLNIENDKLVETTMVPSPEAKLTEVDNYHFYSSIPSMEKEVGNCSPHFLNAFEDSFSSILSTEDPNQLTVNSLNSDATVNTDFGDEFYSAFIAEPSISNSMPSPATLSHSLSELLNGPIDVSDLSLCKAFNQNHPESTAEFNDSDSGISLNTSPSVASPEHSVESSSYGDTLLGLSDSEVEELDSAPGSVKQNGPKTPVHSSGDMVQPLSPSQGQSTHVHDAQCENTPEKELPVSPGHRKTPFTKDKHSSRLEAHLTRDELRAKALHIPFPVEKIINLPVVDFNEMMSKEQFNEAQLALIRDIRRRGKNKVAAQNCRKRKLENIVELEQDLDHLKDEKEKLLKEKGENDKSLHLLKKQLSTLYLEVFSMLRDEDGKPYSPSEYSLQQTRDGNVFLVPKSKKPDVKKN
Keap1/Nrf2, sequence (Q14145 whole entry): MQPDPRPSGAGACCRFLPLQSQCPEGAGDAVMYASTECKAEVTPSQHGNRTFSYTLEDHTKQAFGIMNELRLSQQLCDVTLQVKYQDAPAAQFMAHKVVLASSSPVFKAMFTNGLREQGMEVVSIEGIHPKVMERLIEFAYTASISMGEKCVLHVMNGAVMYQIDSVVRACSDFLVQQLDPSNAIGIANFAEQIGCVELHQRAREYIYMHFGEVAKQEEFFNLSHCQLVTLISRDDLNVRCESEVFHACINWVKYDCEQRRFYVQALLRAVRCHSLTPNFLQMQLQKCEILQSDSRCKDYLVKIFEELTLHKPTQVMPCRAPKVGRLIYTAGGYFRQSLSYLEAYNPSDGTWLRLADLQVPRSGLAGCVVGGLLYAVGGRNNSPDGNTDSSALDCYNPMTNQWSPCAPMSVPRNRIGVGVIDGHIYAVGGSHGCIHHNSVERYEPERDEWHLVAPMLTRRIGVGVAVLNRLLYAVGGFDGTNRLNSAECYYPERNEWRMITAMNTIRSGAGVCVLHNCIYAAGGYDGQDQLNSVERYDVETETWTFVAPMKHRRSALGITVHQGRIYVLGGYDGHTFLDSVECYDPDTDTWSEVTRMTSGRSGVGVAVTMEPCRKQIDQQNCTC

Cytochrome P450 2D6 = Cytochrome P450 2D6 (Homo sapiens, UniProt P10635);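 also: CYP2D6 member of a cytochrome P450 panel assay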
Cytochrome P450 2D6, sequence (P10635 whole entry): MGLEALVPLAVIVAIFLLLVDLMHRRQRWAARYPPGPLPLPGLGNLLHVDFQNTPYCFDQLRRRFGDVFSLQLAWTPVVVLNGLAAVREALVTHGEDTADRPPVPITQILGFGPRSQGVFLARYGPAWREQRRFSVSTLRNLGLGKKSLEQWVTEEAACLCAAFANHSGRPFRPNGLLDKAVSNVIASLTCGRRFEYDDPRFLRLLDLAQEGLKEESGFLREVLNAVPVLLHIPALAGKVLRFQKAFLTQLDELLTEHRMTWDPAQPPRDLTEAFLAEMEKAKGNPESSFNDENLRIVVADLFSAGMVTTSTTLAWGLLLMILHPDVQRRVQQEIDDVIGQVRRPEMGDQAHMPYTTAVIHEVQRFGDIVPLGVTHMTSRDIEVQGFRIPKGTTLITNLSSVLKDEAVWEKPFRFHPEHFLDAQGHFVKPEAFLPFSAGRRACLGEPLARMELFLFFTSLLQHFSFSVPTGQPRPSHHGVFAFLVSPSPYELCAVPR

[19] = target: Acyl-homoserine lactone acylase PvdQ (Pseudomonas aeruginosa (strain LESB58), UniProt Q9I194); test: PvdQ acylase enzyme activity blockers – biochemical, fluorescence, plate reader and imaging, cherry-picks, dose response (AID 493231)
HeLa = test: toxicity to human HeLa cells – cell-based, 48 h, plate reader, cherry-picks, cytotoxicity control, dose response (AID 504942); format: functional
Melanocortin receptor 4 = Melanocortin receptor 4 (Homo sapiens, UniProt P32245); format: functional, cell-based;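 also: Cell-based assay with luminescence read-out, confirmatory dose-response testing for agonist activity of biased ligands at MC4R; human U2OS cells with tagged receptor and beta-arrestin; potency of agonists that increase receptor coupling to beta-arrestin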
Jurkat [20] = test: blockers of NF-kB activation in T cells – Jurkat, luciferase reporter, luminescence, B- and T-cell, dose response (AID 489004); format: functional, cell-based; conditions: Homo sapiens;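 also: NF-kB luciferase reporter Jurkat cells stimulated with PMA plus ionomycin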
[21] = HEK-293T viability loss, compound-treated – cell-based, uHTS hits, cytotoxicity control for B/T-cell NF-kB inhibitor project, dose response (AID 489019); format: functional;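 also: IC50 reflects cytotoxicity as loss of cell viability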
Escherichia coli = test: microbe, parasite or virus in culture
Jurkat [22] = test: SAR Analysis of small molecule inhibitors of […] specific antigen receptor-induced NF-kB activation in a Jurkat cell line using a luminescence assay - Set 3. [Related pubchem assays (depositor defined):AID435022, AID435025, AID465]; format: functional, cell-based; conditions: Homo sapiens
HEK293 [23] = test: SAR Analysis of small molecule inhibitors of B-cell specific antigen receptor-induced NF-kB activation in a HEK-293T cell line using a luminescence assay - Set 2. [Related pubchem assays (depositor defined):AID435022, AID435025, AID489021]; format: functional, cell-based; conditions: Homo sapiens
HEK293 [24] = test: HEK293T cell viability loss, resazurin readout – resazurin fluorescence, cytotoxicity control for NF-kB activator project, SAR follow-up (AID 493251); format: functional, cell-based; conditions: Homo sapiens
[25] = target: Dual specificity protein phosphatase 3 (Homo sapiens, UniProt P51452); test: SAR VHR1 Fluorescent Assay for In Vitro dose response studies Set 3. [Related pubchem assays (depositor defined):AID1654, AID1661, AID1878]; format: functional
Dual specificity protein phosphatase 3, sequence (P51452 whole entry): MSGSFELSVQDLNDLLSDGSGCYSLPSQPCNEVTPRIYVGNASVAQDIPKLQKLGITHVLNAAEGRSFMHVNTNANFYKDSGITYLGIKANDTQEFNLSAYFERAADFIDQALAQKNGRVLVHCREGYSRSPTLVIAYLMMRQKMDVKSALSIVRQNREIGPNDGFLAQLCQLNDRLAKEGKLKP

O=C1NC(=O)/C(=C/c2ccccc2Oc2ccc(Cl)cc2)S1
EC50 [1]: > 160 µM (inactive) | EC50 [2]: 7.87 µM (active) | EC50 (Streptokinase A): > 50 µM (not active) | EC50 [3]: 5.01 µM (active) | EC50 (Streptococcus): 7.13 µM (active) | IC50 (Cysteine protease ATG4B): 9.09 µM (active) | IC50 (Phospholipase A2): 13.9 µM (active)

C=CCN1C(=O)/C(=C\C=C2\N(C)c3ccccc3C2(C)C)SC1=S
EC50 (BJ [4]): > 150 µM (not active) | EC50 (Beta-galactosidase): > 40 µM (inactive) | EC50 (BJ [5]): 42.9 µM (active) | IC50 [6]: > 40 µM (not active) | EC50 (BJ [7]): > 150 µM (not active) | EC50 [8]: > 150 µM (not active) | EC50 [9]: > 32 µM (inactive) | IC50 [10]: 33.4 µM (active) | IC50 [11]: 11 µM (active) | IC50 [12]: 15.9 µM (inactive) | IC50 [13]: 8.19 µM (active)

Cc1ccc(O)c2c1C1C=CCC1C(C(=O)O)N2 (stereo not given)
IC50 [14]: 2.63 µM (active) | IC50 [15]: > 100 µM (not active) | IC50 [16]: > 100 µM (inactive) | IC50 [17]: 86.4 µM (active)

O=C(OC1CCN(c2ccc([N+](=O)[O-])cc2)CC1)c1ccccc1
AC50 (Cytochrome P450 2C19): 0.794 µM (inconclusive) | AC50 (Cytochrome P450 3A4): inconclusive

O=C(NCc1cccc(F)c1)c1cccc2c1C(=O)c1ccc(N3CCC(Cc4ccccc4)CC3)cc1S2(=O)=O
IC50 (CHO): > 49.8 µM (inactive) | AC50 [18]: 5.93 µM (active) | IC50 (Beta Lactamase): 3.21 µM (active)

CCCCOc1nc2nc(-c3ccco3)n(Cc3ccco3)c(N)c-2c1C#N
AC50 (Keap1/Nrf2): > 52 µM (inactive)

NC(=O)CC(c1ccccc1)c1ccco1 (stereo not given)
AC50 (Cytochrome P450 2C19): 28.2 µM (inconclusive) | AC50 (Cytochrome P450 2D6): inconclusive

Cc1ccc(O)c(C(=O)/C=C/c2ccc3c(c2)OCCO3)c1
AC50 [19]: 1.14 µM (active) | AC50 (HeLa): 73.2 µM (active) | EC50 (Melanocortin receptor 4): > 89.2 µM (inactive)

CC(=O)OC(C)(C)/C=C/C(=O)[C@](C)(O)C1[C@H](O)C[C@@]2(C)C3CC=C4C(C[C@H](O)C(=O)C4(C)C)[C@]3(C)C(=O)C[C@]12C (stereo not given in full)
IC50 (Jurkat [20]): 3.03 µM (active) | IC50 [21]: > 80 µM (inactive)

Cc1c(Cl)cccc1NC(=O)C1NC(=O)CC1c1ccccc1 (stereo not given)
AC50 (Escherichia coli): 27.6 µM (active)

CNC(=O)CCc1nc(-c2ccc(C)cc2)no1
IC50 (Jurkat [22]): > 80 µM (inactive) | IC50 (HEK293 [23]): > 80 µM (inactive) | IC50 (HEK293 [24]): > 80 µM (inactive)

COc1ccc(-c2nnc(Nc3nc4ccc(SC)cc4s3)o2)cc1
IC50 [25]: 15.4 µM (active)
